Reference: patent US20080026084A1, “Method and composition for management of weight and blood sugar” (PhytoMyco Research Corporation, priority 2006, published 2008)

Experiments:
[1] = in vivo; cited from earlier work
3T3-L1 cells = experiment: assays of this invention (lipolysis, inhibition of adipocyte differentiation, de-differentiation, leptin secretion); assay type: cell-based, mouse
Text: Method i): Oil Red O staining which stains fat droplets in fat cells and thereby gives a directly related indication of the level of adipogenesis as a function of the amount of staining of fat droplets.
Method ii): GPDH or […] is a key enzyme involved in the pathway of triglyceride synthesis in the glycolytic pathway. Adipocytes express highlevels of this enzyme. Therefore, a reduction in GPDH levels is indicative of inhibition of adipogenesis (prevention of fat accumulation in cells).
Method iii): Assay to observe de-differentiation of adipocytes to preadipocytes can be used to detect compounds and mixtures of compounds that are capable of breaking down existing stores of body fat. This assay identifies compounds and mixtures of compounds than induce the […] of adipocytes to preadipocytes and is quantitatively assessed by developing a color response using Oil Red O staining or by measuring GPDH levels as in methods i) and ii), respectively. Such compounds and mixtures of compounds as extracts of plants can have a direct effect on reducing weight because they cause fat cells to become non-fat cells (preadipocytes).
Method iv) Leptin Secretion assay can be used to determine the presence of leptin which is a product of the Ob gene. It is a hormone secreted by mature adipocytes that plays a role in regulating body fat storage. High levels of leptin circulating in the blood indicate hormonally that energy stores are high, and therefore mitigate the need for further food intake. Compounds or mixtures of compounds of this invention that increase leptin secretion can be administered orally to an overweight or obese person to reduce appetite in that person, and therefore to reduce food intake by that person.
In this assay, pre-adipocyte cells are seeded in 96-well plates and are induced to convert to adipocytes over the course of a 10-15 day treatment with […] reagents. After cells have converted to adipocytes, the cells are starved, and then subsequently treated with or exposed to test compounds or mixtures of compounds or extracts of plants or fractionated extracts of plants. The adipocytes are treated with test compounds in the presence of a surrounding cell medium. Over the course of 1 to 3 hours after exposure to the test compounds or mixture of compounds, the amount of glycerol present in the cell medium is measured. Glycerol and fatty acids are hydrolysis products of triglycerides, and glycerol is released from cells after enzymatic hydrolysis or breakdown of lipids. Results are expressed as a percentage of the amount of glycerol present detected in a reference assay comprising an untreated control. Untreated controls are cells that are treated with vehicle only (such as 100% DMSO).
Inhibition of adipocyte differentiation is assayed by measuring the levels of the enzyme glycerol-3-phosphate dehydrogenase (GPDH). GPDH is involved in the pathway of triglyceride synthesis in the glycolytic pathway. Colorimetric assays can be used to screen for compounds and mixtures of compounds than inhibit the differentiation of preadipocytes to adipocytes. Oil Red O is a colorimetric assay that can be used to stain lipids in adipocytes.
In this assay pre-adipocyte cells require 10 to 15 days to differentiate into adipocytes. […] After cells have undergone the 10-15 days required to differentiate, cells are assessed for GPDH activity.
Results are expressed as a percentage of the untreated control average. […]

Row | Compound | decrease of the amount of fat absorbed from the diet [1] | activity in the assays of this invention (3T3-L1 cells)
1 | CCCCCCCCCCC[C@@H](C[C@@H]1OC(=O)[C@H]1CCCCCC)OC(=O)[C@H](CC(C)C)NC=O [Orlistat] | about 30% | 
2 | CC(=O)OC(C)(C)/C=C/C(=O)[C@](C)(O)[C@H]1[C@H](O)C[C@@]2(C)[C@@H]3CC=C4[C@H](C[C@H](O)C(=O)C4(C)C)[C@]3(C)C(=O)C[C@]12C [cucurbitacin B] |  | active
3 | CC(C)(O)/C=C/C(=O)[C@](C)(O)[C@H]1[C@H](O)C[C@@]2(C)[C@@H]3CC=C4[C@@H](C[C@H](O)C(=O)C4(C)C)[C@]3(C)C(=O)C[C@]12C [cucurbitacin D] |  | active
4 | Cephalandrine A |  | active
5 | Cephalandrine B |  | active
6 | Cephalandrol |  | active
